From patent publication US9096643B2, “Cell-protective peptides and uses thereof” (priority 2010, dated 2015)
No end group written: not given here.

Tests used:
[1] = system: neonatal rat CMs (heart cells); experiment: Live/dead (CFDA/PI) staining of heart cells on coated surfaces; type: cell-based, rat (Sprague-Dawley); settings: one and three days of incubation, FIG. 2
Method: (§1) The day before cells were ready to be seeded, the surfaces in the 12-well plates were sterilized by germicidal UV illumination overnight. The PBS surrounding the surfaces was then aspirated off and 100,000 live cells were pipetted onto each surface in 100 μL of culture media. These surfaces were left in the incubator for 20 to 30 min to allow the cells to begin to adhere, and then supplemented with 1 mL of warm CM media. The cells were cultivated for 8 days, with 100% culture media change every 2-3 days. The initial seeding density of heart cells on peptide-chitosan coated surfaces was 88 cells/mm^2. […] Each type of surface was created in triplicate.
Live dead staining was performed using 5-carboxyfluorescein diacetate acetoxymethly ester (CFDA, Invitrogen), which stains live cells green, and with propidium iodide (PI, Invitrogen), which stains dead cells red, according to the manufacturer's instruction. The samples were incubated in 10 μM of CFDA and 75 μL/mL of PI in PBS for 45 min at 37° C. Three different surfaces were analyzed for each type of sample (N=3) and a total of five images were taken for each surface to get a full representation of the viability of the cells on a surface. In order to quantify the viability, the numbers of live and dead cells were counted separately using the cell counter plug-in on ImageJ.

[2] = system: neonatal rat CMs (heart cells); experiment: Immunostaining for cardiac troponin I on coated surfaces; type: cell-based, rat (Sprague-Dawley); settings: day 8 of cultivation, vs Az-chitosan alone, FIG. 3
Method: as §1
The immunostaining against cardiac troponin I was performed on cells fixed with 4 w/v % paraformaldehyde (PFA, Sigma). The samples were submersed in a blocking solution composed of 10% normal horse serum (NHS, Vector Laboratories) in PBS for 40 min at room temperature. This solution was removed and the sample was submersed in a solution containing primary antibody for 1 hour at 37° C. […] Each sample was made in triplicate and five pictures were taken of each surface to have an adequate representation for quantification. The numbers of nuclei were determined by counting the number of DAPI stained nuclei using the cell counting plugin on ImageJ. The number of CMs was determined by counting the number of successfully stained Troponin I cells.

human iPS cells BJ1D [3] = experiment: iPS cell dose-response, CFDA-Live/PI-Dead live cell count; type: cell-based; settings: 50 μM soluble peptide, passage 5, vs PBS, p=0.028, FIG. 10
Method: The human iPS cells (BJ1D and 0901B) were obtained from the Ontario iPSC Facility and used following the hiPS cell research guidelines of the University of Toronto as described by Hotta et al. Nat. Protoc. 4, 1828-1844 (2009)), unless specified otherwise. Cells were cultured on a feeder layer of MEF cells (Mount Sinai Hospital Toronto, inactivated with 10 μg/ml mitomycin C and seeded at 1.8×10^5 per 3.5 cm dish). For single cell cultures, hiPS cell colonies were dissociated in 0.25% Trypsin-EDTA (Invitrogen) for 5 min, followed by trituration with a pipette. To ensure a single-cell suspension, the dissociated cells were passed through a 40 μm cell strainer (BD Falcon) and seeded onto MEF plates at 10 cells/ml, 10 cm plates. Cells were allowed to grow for 7 days and the total number of colonies was counted. […] Cells were analyzed after 5 passages in continuous treatment with 50 μM QHREDGS, 50 μM DGQESHR, or PBS, unless specified otherwise.
Human iPS cells were treated for 5 passages and stained for CFDA-Live/PI-Dead as described in Rask et al. J. Biomed. […] Live cells were counted using the cell counter plug in for ImageJ Immunohistochemistry was performed as described above (Rask et al., ibid). […]
To determine the optimal concentration of QHREDGS for iPSC expansion, a dose-response experiment was performed. […] Live cells were counted using the cell counter plug in for ImageJ.

human iPS cells 0901B = experiment: iPS cell apoptosis, Apo-ONE Caspase 3/7; type: cell-based; settings: 50 μM, five passages, vs PBS and scrambled peptide, FIG. 12B
Method: (§2) Human iPS cells were treated for 5 passages and levels of apoptosis were measured 3 days after passaging using the Apo-ONE Homogeneous Caspase assay (Promega) according to manufacturers instructions. The levels of Caspase 3/7 activation were proportional to levels of fluorescence. All statistical analyses were performed using the two-tailed student t-test assuming unequal variance. p<0.05 denote statistical significance.
(§3) IPS cells, BJ1D or 0901B, were treated with 5 μM or 50 μM of QHREDGS peptide, or 50 μM DGQESHR scrambled peptide in PBS with a PBS treated control for five passages and assayed for apoptosis using the APO One Caspase 3/7 system. The levels of Caspase 3/7 activation are proportional to fluorescence. […] Solid bars represent a statistical significance, p<0.05.

human iPS cells BJ1D [4] = experiment: iPS cell apoptosis, Apo-ONE Caspase 3/7; type: cell-based; settings: 50 μM, five passages, vs PBS and scrambled peptide, FIG. 12A
Method: as §2, §3

| Substance | cell viability (live/dead) [1] | percentage of troponin I positive cells [2] | number of viable human iPS cells (human iPS cells BJ1D [3]) | Caspase 3/7 activity (human iPS cells 0901B) | Caspase 3/7 activity (human iPS cells BJ1D [4]) |
| --- | --- | --- | --- | --- | --- |
| Az-chitosan-QHREDGS: QHREDGS peptide covalently conjugated to Az-chitosan by EDC chemistry (also: covalently conjugated to Az-chitosan by EDC chemistry, site not given here) | significantly greater cell viability | increase in the percentage of troponin I positive cells |  |  |  |
| QHREDGS (angiopoietin 1 peptide) |  |  | significant increase | significant reduction of Caspase 3/7 activity | significant reduction of Caspase 3/7 activity |
